Like-named read-outs stand apart in the source and are kept apart here.
Assays:
[1] = Crystalline stability: stability factors test at high humidity, high temperature and light (PXRD and HPLC content); format: physicochemical; settings: for Content (%): HPLC content (w/w, %); for Crystal form: PXRD; for content (all conditions) / morphology of crystal form: high humidity, high temperature and light, each for 10 days
Description: The samples were taken at day 5 and day 10 respectively for PXRD (polycrystalline X ray diffraction) detection and HPLC content (w/w, %) determination, and the results were compared with that of day 0.

[2] = Mechanical stress of the crystal form (ball milling, PXRD); format: physicochemical; settings: for Crystal form after ball milling: ball mill 400 r/min, PXRD, duplicate mortars; for change of crystal form under ball milling pressure: ball milled for 30 min, 4 h and 6 h
Protocol: Samples were taken when the ball milled at 30 min, 4 h and 6 h respectively, and then for PXRD test. The change of crystal form was observed, and the experiment was carried out parallelly in duplicate.

[3] = Pharmacokinetics of Crystal Form A and Crystal Form B capsules in beagle dogs; format: in vivo
Protocol: There were 12 beagle dogs for the experiment, half male and half female, weighing 11.0-14.1 kg, provided by the Teaching and Experimental Ground of Agricultural College of Shanghai Jiao Tong University. The animals were raised in single cage, and the feeding amount can be adjusted according to the weight or feed intake of the animals. The animals can drink water freely, with 12/12 h light/dark cycle adjustment, constant temperature of 23±1° C., humidity of 50-60%. On the day of administration, the experimental animals were fasted overnight before administration. […] The animals were weighed on the day of administration, and the dosage was determined according to their body weight. The above-mentioned grouped beagle dogs were administered according to the method in Table 5 below. [table] 1 mL of whole blood was collected from the cephalic vein at blood collection time points of 0.0830, 0.250, 0.500, 1.00, 2.00, 4.00, 8.00, 24.00 h after administration. […] The analytical method was performed by liquid chromatography tandem triple quadrupole mass spectrometry (LC MS/MS). […] The peak concentration (Cmax) and the peak time (Tmax) were obtained from the plasma concentration-time curve graph. The log-linear trapezoidal method (see: Gabrielsson J, Weiner D. Pharmacokinetic and pharmacodynamic data analysis: concepts and applications[M]. CRC Press, 2001, pages 141-146) was used to calculate the following parameters: elimination phase half-life (T1/2), mean retention time extrapolated from zero time point to infinity (MRT0-inf), mean retention time from zero time point to the last detectable concentration time point (MRT0-last), the area under the plasma concentration-time curve from the zero time point to the last detectable concentration time point (AUC0-last), and the area under the plasma concentration-time curve extrapolated from the zero time point to infinity (AUC0-inf). The experimental data was expressed as the mean (Mean)±standard deviation (S.D.). The excel software t-test was used for statistical comparison.

[4] = Day 10 at high humidity (R.H. 92.5%)
[5] = Day 10 at high temperature (60° C.)
[6] = beagle dogs, PO 5 mg/kg, capsule, n = 6
[7] = beagle dogs, PO 5 mg/kg, capsule, x ± s, n = 6

Row | Content (%) ([1]; Day 0) | Crystal form ([1]; Day 0) | Content (%) [1, 4] [%] | Crystal form [1, 4] | Content (%) [1, 5] [%] | Crystal form [1, 5] | Content (%) ([1]; Day 10 at light (4500±500 lx)) | Crystal form ([1]; Day 10 at light (4500±500 lx)) | content (all conditions) [1] [%] | morphology of crystal form [1] | Crystal form after ball milling ([2]; 30 min) | Crystal form after ball milling ([2]; 4 h) | Crystal form after ball milling ([2]; 6 h) | change of crystal form under ball milling pressure [2] | SMILES | other results
1 | 96.70 | Crystal Form B | 96.67 | Crystal Form B + | 96.65 | Crystal Form B + | 96.69 | Crystal Form B + | ≥ 96.0 | could not remain stable | Crystal Form B | Crystal Form B + | Crystal Form B + | its crystal form changed significantly | CN1CCc2ccc(OCCCN3CCC(c4noc5cc(F)ccc45)CC3)cc2C1=O [Crystal Form B, 7-(3-(4-(6-fluorobenzo[d]isoazol-3-yl)piperidin-1-yl)propoxy)-2-methyl-3,4-dihydroisoquinolin-1(2H)-one] | T1/2 [3, 6]: 2.1 h; Tmax [3, 6]: 1.7 h; AUC0-inf [3, 7]: 2186 ± 82.1 ng·h/mL; AUC0-last [3, 7]: 2039 ± 81.9 ng·h/mL; Cmax [3, 7]: 426 ± 32.75 ng/mL
2 | 97.21 | Crystal Form A | 97.18 | Crystal Form A | 97.15 | Crystal Form A | 97.13 | Crystal Form A | ≥ 97.0 | stable | Crystal Form A | Crystal Form A | Crystal Form A | its crystal form did not change | CN1CCc2ccc(OCCCN3CCC(c4noc5cc(F)ccc45)CC3)cc2C1=O [Crystal Form A, 7-(3-(4-(6-fluorobenzo[d]isoazol-3-yl)piperidin-1-yl)propoxy)-2-methyl-3,4-dihydroisoquinolin-1(2H)-one] | half-life ([3]; both sexes, beagle, dog, plasma, po, 5 mg/kg, beagle dogs, PO 5 mg/kg, capsule, n = 6): 2.9 h; Tmax ([3]; both sexes, beagle, dog, plasma, po, 5 mg/kg, beagle dogs, PO 5 mg/kg, capsule, n = 6, read-out: Tmax): 2.6 h; AUC(0-t) ([3]; both sexes, beagle, dog, plasma, po, 5 mg/kg, beagle dogs, PO 5 mg/kg, capsule, x ± s, n = 6): 2840 ± 77.8 ng·h/mL; AUC0-inf ([3]; both sexes, beagle, dog, plasma, po, 5 mg/kg, beagle dogs, PO 5 mg/kg, capsule, x ± s, n = 6, read-out: AUC0-inf): 2990 ± 82 ng·h/mL; Cmax ([3]; both sexes, beagle, dog, plasma, po, 5 mg/kg, beagle dogs, PO 5 mg/kg, capsule, x ± s, n = 6, read-out: Cmax): 645 ± 37.2 ng/mL; bioavailability ([3]; both sexes, beagle, dog, plasma, po, 5 mg/kg, read-out: relative bioavailability (F)): 137%

Source: patent US20220024905A1, “CRYSTALLINE FORM OF PROPANAMIDE DERIVATIVE AND PREPARATION METHOD THEREFOR” (NHWA PHARMA. CORPORATION, priority 2018, published 2022)
